Data published in patent US20230414611A1, “REFINED USES OF GABA A RECEPTOR MODULATORS IN TREATMENT OF FRAGILE X SYNDROME” (CHILDREN'S HOSPITAL MEDICAL CENTER, priority 2020, published 2023).

Test system: adults with Fragile X Syndrome (FXS)
Assay: EEG relative band power
Type: in vivo, human
Description: Brain cells communicate via electrical impulses and are active all the time, even a subject is asleep. Electroencephalogram (EEG) detects the electrical activity in the brain. EEG can measure alpha waves, beta waves, and gamma waves. FXS patients typically show low alpha (Alpha waves are involved in higher level, complex cognition) and elevated gamma (representing noise, excessive synaptic connectivity-brain cells over connecting). Gamma activations represent high frequency brain rhythms, which may coincide with functional brain activity and/or muscular activity.
EEG statistical analysis strategies used in this study include: (a) electrode-specific relative band power estimation; (b) applying crossover-trial modeling to validate the absence of period effect; and (c) testing the within-subject relative power change per condition (i.e., determining impact of AZD7325 on gamma power in a treated patient).

[1] = Placebo vs High dose, acute visit, FMRP undetectable subjects (n = 5)
[2] = Placebo vs High dose, acute visit, male subjects (n = 9)
[3] = Placebo vs High dose, chronic visit, FMRP undetectable subjects (n = 5)
[4] = Placebo vs High dose, chronic visit, all subjects (n = 12)
[5] = Placebo vs High dose, chronic visit, male subjects (n = 9)
[6] = Placebo vs Low dose, acute visit, all subjects (n = 12)
[7] = Placebo vs Low dose, acute visit, male subjects (n = 9)
[8] = Placebo vs Low dose, chronic visit, FMRP undetectable subjects (n = 5)
[9] = Placebo vs Low dose, chronic visit, all subjects (n = 12)
[10] = Placebo vs Low dose, chronic visit, male subjects (n = 9)
[11] = high dose relative to low dose, acute, male patients
[12] = high dose relative to low dose, acute, peripheral FMRP nondetectable patients
[13] = high dose relative to low dose, chronic, all patients
[14] = high dose relative to low dose, chronic, male patients
[15] = high dose relative to low dose, chronic, peripheral FMRP nondetectable patients
[16] = low dose vs placebo, chronic, male detectable FMRP group

In the case of `CCCNC(=O)c1nnc2c(-c3c(F)cccc3OC)cccc2c1N` [AZD7325, 4-amino-8-(2-fluoro-6-methoxyphenyl)-N-propylcinnoline-3-carboxamide], the “EEG relative band power: alpha2” value [1] is reported as “local distant small clusters”, the “EEG relative band power: beta” value [1] is reported as “elevated broadly in the central and parietal regions” and the “EEG relative band power: delta” value [1] is reported as “local distant small clusters”. For the same compound, the “EEG relative band power: alpha2” value [2] was “central frontal power decrease”, the “EEG relative band power: beta” value [2] was “elevates a broad region in the central and parietal regions” and the “EEG relative band power: gamma1” value [2] was “elevated electrodes in the right frontal region”. For the same compound, the “EEG relative band power: beta” value [3] was “isolated electrodes in the parietal and occipital areas elevated”, the “EEG relative band power: gamma” value [3] was “isolated electrodes in the parietal and occipital areas elevated” and the “EEG relative band power: theta” value [3] was “decreased in the posterior area”. The “EEG relative band power: beta” value [4] was “electrodes in the parietal and occipital areas elevated”, the “EEG relative band power: gamma” value [4] was “electrodes in the parietal and occipital areas elevated” and the “EEG relative band power: theta” value [4] was “decrease in the central area”. The “EEG relative band power: beta” value [5] was “electrodes in the parietal and occipital areas elevated”, the “EEG relative band power: gamma” value [5] was “electrodes in the parietal and occipital areas elevated” and the “EEG relative band power: theta” value [5] was “decrease in the central area”. For the same compound, the “EEG relative band power: beta” value (Placebo vs Low dose, acute visit, FMRP undetectable subjects (n = 5)) was “limited numbers of significantly effected electrodes”, the “EEG relative band power: beta” value [6] was “limited numbers of significantly effected electrodes” and the “EEG relative band power: theta” value [6] was “limited numbers of significantly effected electrodes”. For the same compound, the “EEG relative band power: alpha” value [7] was “limited numbers of significantly effected electrodes”, the “EEG relative band power: beta” value [7] was “limited numbers of significantly effected electrodes” and the “EEG relative band power: beta” value [8] was “elevates beta power”. The “EEG relative band power: theta” value [8] was “reduces theta band power”, the “EEG relative band power: beta” value [9] was “increases beta and gamma band in the parietal region” and the “EEG relative band power: gamma” value [9] was “increases beta and gamma band in the parietal region”. The “EEG relative band power: theta” value [9] was “reduces theta band”, the “EEG relative band power: alpha” value [10] was “retain consistent” and the “EEG relative band power: beta” value [10] was “increases beta and gamma bands in the parietal”. For the same compound, the “EEG relative band power: theta” value [10] was “reduces theta band”, the “EEG relative band power: beta” value (high dose relative to low dose, acute, all patients) was “elevate in multiple clusters” and the “EEG relative band power: alpha2” value [11] was “decreased power cluster in the right central region”. The “EEG relative band power: beta” value [11] was “elevate in multiple clusters”, the “EEG relative band power: beta” value [12] was “elevate in multiple clusters” and the “EEG relative band power: delta (left frontal cluster)” value [12] was “reduced delta band power”. The “EEG relative band power: alpha2 (frontal)” value [13] was “decrease”, the “EEG relative band power: beta” value [13] was “scattered elevated spots” and the “EEG relative band power: delta” value [13] was “scattered elevated spots”. For the same compound, the “EEG relative band power: gamma” value [13] was “scattered elevated spots”, the “EEG relative band power: alpha2 (frontal area)” value [14] was “decrease in relative power” and the “EEG relative band power: delta” value [14] was “electrode in left central area elevated”. For the same compound, the “EEG relative band power: gamma sub-bands” value [14] was “No significant change”, the “EEG relative band power: alpha2 (temporal side)” value [15] was “decrease in relative power” and the “EEG relative band power: beta (temporal side)” value [15] was “decrease in relative power”. For the same compound, the “EEG relative band power: gamma bands” value [15] was “same occipital electrode elevated”, the “EEG power (beta band)” value (low dose vs placebo, chronic, female (detectable FMRP)) was “does not effect” and the EEG beta power [16] was “elevates beta power”. For the same compound, the “EEG gamma 1 power (E31)” value [16] was “elevates gamma 1 power”, the “EEG theta band power” value [16] was “reduces theta band power” and the “EEG band power: gamma bands” value (low dose vs placebo, chronic, male subjects, parietal) was “increases beta and gamma bands in the parietal”. The “EEG gamma 1 power (E31)” value (low dose vs placebo, chronic, nondetectable FMRP group) was “elevates gamma 1 power”, the “EEG gamma 1 power” value (low dose, chronic, female subjects) was “does not grow gamma 1 power” and the “gamma waves (EEG)” value (low dose, male patients having undetectable peripheral FMRP) was “decreased gamma waves”.
